US20240300991A1, “NUCLEOSIDE DERIVATIVE HAVING MULTI-TARGET KINASE INHIBITORY ACTIVITY AND PHARMACEUTICAL COMPOSITION FOR PREVENTING AND TREATING CANCER COMPRISING SAME” (FUTURE MEDICINE CO., LTD., priority 2021, published 2024)

How the values were obtained:
CSNK1D = target: T1, CSNK1D (Homo sapiens, UniProt P48730); assay: Kinase inhibition test (DNA-tagged kinase, affinity resin, qPCR readout); assay type: binding; design: key: (−) indicates no effect; (+) indicates weak inhibitory activity; (++) indicates a moderate level of inhibitory activity; (+++) indicates strong inhibitory activity; settings: 1 μM of compound
T1 construct: made in house
Description: (§1) In order to examine the inhibitory activity of the nucleoside derivatives of the present invention synthesized in the Preparation Examples against kinases, the nucleoside derivatives were confirmed to have inhibitory activity against neurotrophic tyrosine kinase receptor type 1 or tropomyosin receptor kinase A (NTRK1), casein kinase 1 isoform delta (CSNK1D), dual specificity tyrosine-phosphorylation-regulated kinase 1A (DYRK1A), dual specificity tyrosine-phosphorylation-regulated kinase 1B (DYRK1B) and receptor-type tyrosine-protein kinase or fms like tyrosine kinase 3 or cluster of differentiation antigen 135 (CD135) or fetal liver kinase-2 (Flk2) (FLT3).
(§2) The inhibition measurement method is as follows. Most of the kinases were produced by culturing a phage in which BL21 E. coli was tagged with a kinase at 32° C. until lysis, followed by centrifugation and filtration. Further, the kinases were produced using HEK-293 cells. Thereafter, the kinases were DNA tagged for qPCR. After an affinity resin was prepared by stirring a biotin-tagged substrate onto streptavidin-coated beads for 30 minutes, a non-specifically bound substrate was washed with a buffer (SeaBlock (Pierce), 1% BSA, 0.05% Tween 20, 1 mM DTT).
(§3) For a kinase test, the kinase, the substrate, the affinity resin, and a test material dissolved in dimethyl sulfoxide were stirred together in a buffer (20% SeaBlock, 0.17×PBS, 0.05% Tween20, and 6 mM DTT) at room temperature for 1 hour. Thereafter, an affinity substrate was washed with a buffer (1×PBS, 0.05% Tween20), and then suspended in an elution buffer (1×PBS, 0.05% Tween20, 0.5 μM non-biotinylated affinity ligand), and the resulting suspension was stirred. The concentration of the kinase was quantified by qPCR.

DYRK1A = target: T2, DYRK1A (Homo sapiens, UniProt Q13627); assay: as above; assay type: binding; design: key: (−) indicates no effect; (+) indicates weak inhibitory activity; (++) indicates a moderate level of inhibitory activity; (+++) indicates strong inhibitory activity; settings: 1 μM of compound
T2 construct: made in house
Description: as §1, §2, §3

DYRK1B = target: T3, DYRK1B (Homo sapiens, UniProt Q9Y463); assay: as above; assay type: binding; design: key: (−) indicates no effect; (+) indicates weak inhibitory activity; (++) indicates a moderate level of inhibitory activity; (+++) indicates strong inhibitory activity; settings: 1 μM of compound
T3 construct: made in house
Description: as §1, §2, §3

NTRK1 = target: T4, NTRK1 (Homo sapiens, UniProt P04629); assay: as above; assay type: binding; design: key: (−) indicates no effect; (+) indicates weak inhibitory activity; (++) indicates a moderate level of inhibitory activity; (+++) indicates strong inhibitory activity; settings: 1 μM of compound
T4 construct: made in house
Description: as §1, §2, §3

A549 (lung cancer cells) = assay: Inhibitory activity against cancer cells (sulforhodamine B staining); assay type: cell-based; settings: 3 days, SRB staining
Description: (§4) In order to examine the anticancer activity of the nucleoside derivatives of the present invention synthesized in the Preparation Examples, the ICso of each of A549 (lung cancer cells), HCT116 (colon cancer cells), MDA-MB-231 (breast cancer cells), SK-Hep-1 (liver cancer cells), SNU638 (stomach cancer cells) and PC-3 (prostate cancer cells) against cancer cells was measured.
(§5) The test method is as follows. Cells were allowed to stand for 1 day and set as a control on day 0. Further, after a test material was added to the cells, the cells were allowed to stand for 3 days. Thereafter, the cells were stained with 1% acetic acid and 0.4% sulforhodamine B. The stained cells were dried and dissolved in 10 mM Tris (pH 10.0). Absorbance was measured at 515 nm, and the degree of cell division was determined using the following equation. After calculation as Cell division (%)=(average absorbancetest material−average absorbanceday 0)/(average absorbance control-average absorbanceday 0)×100, the degree of cell division was calculated through a non-linear regression analysis using Table Curve 2D v5.01 (Systat Software Inc., San Jose, CA, USA).

[1] = system: HCT116 (colon cancer cells); assay: as above; assay type: cell-based; settings: 3 days, SRB staining
Description: as §4, §5

[2] = system: MDA-MB-231 (breast cancer cells); assay: as above; assay type: cell-based; settings: 3 days, SRB staining
Description: as §4, §5

[3] = system: PC-3 (prostate cancer cells); assay: as above; assay type: cell-based; settings: 3 days, SRB staining
Description: as §4, §5

[4] = system: SK-Hep-1 (liver cancer cells); assay: as above; assay type: cell-based; settings: 3 days, SRB staining
Description: as §4, §5

[5] = system: SNU638 (stomach cancer cells); assay: as above; assay type: cell-based; settings: 3 days, SRB staining
Description: as §4, §5

T4 sequence (P04629 33-796): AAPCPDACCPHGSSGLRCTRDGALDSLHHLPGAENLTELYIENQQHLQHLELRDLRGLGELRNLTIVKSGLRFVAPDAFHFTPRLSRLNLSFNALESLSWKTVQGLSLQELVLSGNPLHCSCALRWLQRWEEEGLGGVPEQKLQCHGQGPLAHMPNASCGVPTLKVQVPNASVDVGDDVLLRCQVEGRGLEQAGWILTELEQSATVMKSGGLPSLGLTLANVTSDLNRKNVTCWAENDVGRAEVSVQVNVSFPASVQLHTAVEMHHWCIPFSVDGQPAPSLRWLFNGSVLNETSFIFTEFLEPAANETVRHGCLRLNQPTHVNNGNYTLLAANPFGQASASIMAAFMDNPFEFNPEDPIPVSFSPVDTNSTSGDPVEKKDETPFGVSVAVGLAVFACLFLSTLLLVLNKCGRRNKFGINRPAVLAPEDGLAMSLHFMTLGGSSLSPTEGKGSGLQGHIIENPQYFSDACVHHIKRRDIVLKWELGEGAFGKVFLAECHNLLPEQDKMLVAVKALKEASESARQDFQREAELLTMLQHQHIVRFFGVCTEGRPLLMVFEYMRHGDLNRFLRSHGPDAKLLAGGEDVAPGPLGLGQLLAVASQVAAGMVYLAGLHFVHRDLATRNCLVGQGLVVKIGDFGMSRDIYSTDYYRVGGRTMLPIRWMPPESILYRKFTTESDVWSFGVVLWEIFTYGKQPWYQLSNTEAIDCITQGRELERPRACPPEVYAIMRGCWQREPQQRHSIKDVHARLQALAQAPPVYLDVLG
T1 sequence (P48730 whole entry): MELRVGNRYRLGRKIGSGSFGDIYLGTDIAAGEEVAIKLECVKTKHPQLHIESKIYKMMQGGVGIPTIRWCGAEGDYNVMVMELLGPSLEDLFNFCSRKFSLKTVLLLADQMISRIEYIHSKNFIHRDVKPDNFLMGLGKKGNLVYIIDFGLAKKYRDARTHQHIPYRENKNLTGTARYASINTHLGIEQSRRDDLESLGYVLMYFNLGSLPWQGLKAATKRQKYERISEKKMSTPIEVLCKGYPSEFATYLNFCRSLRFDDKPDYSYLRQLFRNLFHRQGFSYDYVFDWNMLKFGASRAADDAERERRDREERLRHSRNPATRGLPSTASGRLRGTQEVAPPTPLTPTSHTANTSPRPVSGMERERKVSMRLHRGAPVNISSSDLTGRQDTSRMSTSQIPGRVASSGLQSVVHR
T3 sequence (Q9Y463 whole entry): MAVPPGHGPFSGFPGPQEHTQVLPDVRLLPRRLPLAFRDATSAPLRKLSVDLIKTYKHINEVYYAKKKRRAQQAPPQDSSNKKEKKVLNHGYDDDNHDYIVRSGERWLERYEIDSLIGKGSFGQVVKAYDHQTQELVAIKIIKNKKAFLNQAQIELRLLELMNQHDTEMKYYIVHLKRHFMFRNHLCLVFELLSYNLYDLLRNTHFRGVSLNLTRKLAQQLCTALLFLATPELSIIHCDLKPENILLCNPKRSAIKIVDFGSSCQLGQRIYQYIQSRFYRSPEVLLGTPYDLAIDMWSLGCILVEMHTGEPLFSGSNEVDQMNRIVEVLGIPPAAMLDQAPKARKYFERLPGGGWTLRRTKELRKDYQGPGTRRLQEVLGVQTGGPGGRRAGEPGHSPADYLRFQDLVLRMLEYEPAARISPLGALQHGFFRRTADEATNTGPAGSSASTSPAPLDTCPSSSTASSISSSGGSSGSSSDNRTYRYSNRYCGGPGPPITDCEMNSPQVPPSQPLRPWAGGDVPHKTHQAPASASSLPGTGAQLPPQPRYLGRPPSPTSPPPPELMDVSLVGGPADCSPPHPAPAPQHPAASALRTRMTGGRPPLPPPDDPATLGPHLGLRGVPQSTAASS

SMILES | CSNK1D inhibitory activity (CSNK1D) | DYRK1A inhibitory activity (DYRK1A) | DYRK1B inhibitory activity (DYRK1B) | NTRK1 inhibitory activity (NTRK1) | IC50 (A549 (lung cancer cells)) [µM] | IC50 [1] [µM] | IC50 [2] [µM] | IC50 [3] [µM] | IC50 [4] [µM] | IC50 [5] [µM]
C#Cc1cn([C@@H]2S[C@H](COC(=O)c3c(C)cccc3C)[C@@H](O)[C@H]2O)c2ncnc(N)c12 [Compound 7e] | ++ | ++ | ++ | +++ | 6.47 | 6.42 | 4.68 | 5.59 | 4.39 | 4.84
C#Cc1cn([C@@H]2S[C@H](COC(=O)c3ccncc3)[C@@H](O)[C@H]2O)c2ncnc(N)c12 [Compound 7f] | ++ | ++ | ++ | +++ | 0.07 | 0.038 | 0.074 | 0.078 | 0.05 | 0.048
N#Cc1cn([C@@H]2S[C@H](COC(=O)c3ccccc3)[C@@H](O)[C@H]2O)c2ncnc(N)c12 [Compound 7g] | +++ | +++ | +++ | ++ | 2.58 | 3.6 | 1.56 | 2.96 | 5.62 | 3.78
NC(=O)c1cn([C@@H]2S[C@H](COC(=O)c3ccccc3)[C@@H](O)[C@H]2O)c2ncnc(N)c12 [Compound 7h] | +++ | +++ | +++ | ++ | 4.78 | 1.61 | 6.79 | 3.56 | 5.09 | 5.23

Now from value to compound:

CSNK1D inhibitory activity (CSNK1D) | DYRK1A inhibitory activity (DYRK1A) | DYRK1B inhibitory activity (DYRK1B) | NTRK1 inhibitory activity (NTRK1) | IC50 (A549 (lung cancer cells)) [µM] | IC50 [1] [µM] | IC50 [2] [µM] | IC50 [3] [µM] | IC50 [4] [µM] | IC50 [5] [µM] | SMILES
++ | +++ | ++ | +++ | 10.1 | 13.7 | 10.4 | 14.8 | 12.2 | 12.2 | C#Cc1cn([C@@H]2S[C@H](CNC(=O)c3ccc(OC)cc3)[C@@H](O)[C@H]2O)c2ncnc(N)c12 [Compound 8c]
++ | ++ | +++ | +++ | 11.2 | 8.9 | 9.34 | 6.67 | 13.8 | 23.7 | N#Cc1cn([C@@H]2S[C@H](CNC(=O)c3ccccc3)[C@@H](O)[C@H]2O)c2ncnc(N)c12 [Compound 8d]
++ | ++ | ++ | ++ | 45.2 | 12.5 | 6.78 | 4.65 | 10 | 9.34 | NC(=O)c1cn([C@@H]2S[C@H](CNC(=O)c3ccccc3)[C@@H](O)[C@H]2O)c2ncnc(N)c12 [Compound 8e]
+++ | +++ | +++ | +++ | 0.23 | 0.56 | 0.38 | 0.45 | 1.05 | 0.12 | N#Cc1cn([C@@H]2S[C@H](CN=[N+]=[N-])[C@@H](O)[C@H]2O)c2ncnc(N)c12 [Compound 9b]
+++ | +++ | +++ | +++ | 0.24 | 0.86 | 0.26 | 0.36 | 0.78 | 0.35 | [N-]=[N+]=NC[C@H]1S[C@@H](n2cc(C(N)=O)c3c(N)ncnc32)[C@H](O)[C@@H]1O [Compound 9c]
